Reference: the METLIN SMRT retention time set (Domingo-Almenara et al. 2019)

Test: gradient 5% acetonitrile 3 min, to 50% in 2 min, to 85% in 15 min, held 3 min, 100 µL/min
Conditions: column: Zorbax Extend-C18 2.1 x 50 mm; eluents: water / acetonitrile, 0.1% formic acid
Summary of the method: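 Standards, all pure, were combined into mixtures of ~100 molecules and run at 100 μL/min on a Zorbax Extend-C18 column (2.1 × 50 mm, 1.8 μm) with water and acetonitrile, each containing 0.1% formic acid. A coupled quadrupole time-of-flight mass spectrometer operated in positive and negative ionization mode. Retention time values come from computationally picked adduct peaks, each inspected manually.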

Compound | RP-LC retention time
CCCN1C(=O)COc2ccc(-c3noc(-c4cccc(Cl)c4)n3)cc21 | 1350 s
O=C(c1cc2c(s1)CCC(C(=O)N1CCN(c3ccccn3)CC1)C2)N1CCOCC1 (centres undefined) | 582 s
COC[C@@H]1CN(Cc2ccc(C#N)cc2)C[C@H]1c1ccccn1 | 553 s
O=C(Cn1cnc2nc(-c3cccnc3)ncc2c1=O)Nc1ccc2c(c1)OCO2 | 826 s
Cc1ccc2c(c1)cc(S(=O)(=O)c1ccccc1)c(=O)n2CC(=O)NC(C)C | 808 s
COc1ccc(C(C)NC(=O)c2cn3cc(Cl)ccc3n2)cc1 (centres undefined) | 833 s
Cc1ccccc1S(=O)(=O)N1CCc2c(c(-c3nnc(-c4ccc(F)cc4)o3)nn2C)C1 | 955 s
CNC(=O)[C@@H]1C[C@H](Oc2ccccc2)CN1C(=O)C1CC=CC1 | 710 s
O=C(Cn1cnc2c(sc3nc(-c4ccccc4)ccc32)c1=O)NCc1ccc(F)cc1 | 982 s
O=C(Cn1ncn2c(cc3cc(F)ccc32)c1=O)N1CCN(c2ccccn2)CC1 | 605 s
CCC(C)NC(=O)CCc1cc2cc(OC)ccc2[nH]c1=O (centres undefined) | 668 s
COC(=O)c1cccc(C(=O)Nc2cc(Cl)ccc2C)n1 | 999 s
C=CCn1nc2ccc(S(=O)(=O)N3CCCCC3)cn2c1=O | 778 s
Cc1csc(-c2cc(S(=O)(=O)N(C)Cc3ccco3)c(C)n2C)n1 | 1000 s
COc1ccc(NC(=O)Cn2cccc(-c3nc(-c4ccc(OC)c(OC)c4)no3)c2=O)c(OC)c1 | 788 s
Cc1cccc(C)c1OCC(O)Cn1c(C2CC(=O)N(Cc3ccccc3)C2)nc2ccccc21 (centres undefined) | 834 s
Cc1ccc(-c2cc(C(=O)NC3CCCCC3)c(C)[nH]2)cc1 | 958 s
CN1C(=O)c2cccnc2Sc2cc(NC(=O)C3(c4ccccc4)CC3)ccc21 | 875 s
Cc1sc(-c2nnc(C(=O)N3CCCCC3)o2)cc1S(=O)(=O)NC1CC1 | 824 s
Cc1ccnc(NC(=O)C2CCCN(S(=O)(=O)c3cc(-c4noc(C5CCC5)n4)cs3)C2)c1 (centres undefined) | 891 s
Cc1cc(-n2nnc(C(=O)N3CCC4(CC3)OCCO4)c2-c2ccncc2)ccc1F | 715 s
COc1ccc(NS(=O)(=O)c2cc3n(c2)CCN(CC(C)C)C3=O)cc1Cl | 828 s
CC1CN(CCc2ccccc2)c2nc3c(c(=O)n(CCN4CCOCC4)c(=O)n3C)n2C1 (centres undefined) | 680 s

Compound | RP-LC retention time
Cc1nnc(-c2cccnc2N2CCN(C(=O)CC3CCCC3)CC2)o1 | 728 s
CCC(=O)N1CCc2c(C(=O)NCCN3CCc4ccccc4C3)cccc21 | 614 s
O=C(C1CCCN(Cc2nc(-c3cccnc3)no2)C1)N1CCc2ccccc21 (centres undefined) | 595 s
COc1ccc(NC(=O)Cn2c(N)nc(C)cc2=O)cc1F | 593 s
COc1ccc(CSc2nc3ccccc3[nH]2)cc1 | 625 s
CCOC(=O)N1CCN(c2nc(F)c3c(c2F)S(=O)(=O)CCN3Cc2ccco2)CC1 | 962 s
CCOC(=O)C1CCN(C(=O)C2CCN(c3nnc(-c4ccc(C)cc4)o3)CC2)CC1 | 842 s
CCn1c(=O)c2c(cc(C)n2C)n(CC(=O)Nc2c(C)cccc2C)c1=O | 756 s
O=C(CCC1CCCN(c2cc(NC3CC3)ncn2)C1)NCc1cccnc1 (centres undefined) | 560 s
O=C(CCc1ccc2nc(-c3ccccc3)[nH]c2c1)N1CCC(N2CCCCC2)CC1 | 559 s
CCOc1ccc(-c2nc(Cc3noc(-c4ccc(C#N)cc4)n3)c(C)o2)cc1 | 1160 s
CNS(=O)(=O)c1cccnc1Nc1ccccc1 | 865 s
Cc1ccc(-c2ccc(-n3nc(C)c(S(=O)(=O)Nc4ccc5c(c4)OCCO5)c3C)nn2)cc1 | 1010 s
Cc1nc2ccn(Cc3cccnc3)c(=O)c2cc1C(=O)NCc1ccc2c(c1)OCO2 | 592 s
CCNC(=O)N1CCN(CCCC(c2ccc(F)cc2)c2ccc(F)cc2)CC1 | 766 s
OCC1CN(C2CCC2)CC12CCN(Cc1ccccc1F)CC2 (centres undefined) | 591 s
COc1ccc(NC(=O)Cc2c(C)nn(-c3nc(-c4ccc(Cl)cc4)cs3)c2C)c(OC)c1 | 1230 s
Cn1cc(-c2ccncc2)cc1C(=O)NCc1ccccc1Br | 655 s
O=C(Nc1nnc2n1CCS2)c1c(F)cccc1F | 584 s
COCCCNC(=O)N1CCCC(C)(C(=O)NCc2ccccc2C)C1 (centres undefined) | 720 s
Cc1ccc(Cl)cc1NC(=O)CSc1nnc2c3cc(-c4ccc(F)cc4)nn3ccn12 | 618 s
COCC(=O)NC1CCC12CCN(C(=O)C1CCC1)CC2 (centres undefined) | 661 s
Cc1noc(-c2nc(-c3ccccc3F)no2)n1 | 990 s

Compound | RP-LC retention time
CC(C)c1noc(-c2cc(=O)n(CC(=O)NCc3ccc(F)cc3)c3ccccc23)n1 | 951 s
CSCCC(NC(=O)COc1cccc2ccccc12)C(=O)O (centres undefined) | 769 s
CCN1C(=O)COc2cc(-c3noc(C(=O)N4CCN(C5CCCCC5)CC4)n3)ccc21 | 652 s
O=C(NC1CCCCCC1)C1CC(=O)N(CCc2c[nH]c3ccc(Cl)cc23)C1 (centres undefined) | 871 s
CCC(=O)Nc1cc(C)n(Cc2ccccc2)n1 | 733 s
Cc1nc(-c2cc(S(=O)(=O)N3CCN(c4ccccc4Cl)CC3)c(C)s2)cs1 | 1240 s
CCOC(=O)N1CCN(c2nc(Nc3ccc(OC)cc3)c3nccnc3n2)CC1 | 670 s
O=C(NCc1noc(Cc2ccccc2)n1)c1ccccc1 | 798 s
CN1CCCn2cc(S(=O)(=O)Nc3ccc(Cl)cc3)cc2C1=O | 714 s
COc1ccc(S(=O)(=O)N2C[C@H](F)C[C@@H]2C(=O)N2CCOCC2)cc1Cl | 721 s
NC(=O)c1cc[nH]c1C1CCCN(S(=O)(=O)c2cnc[nH]2)C1 (centres undefined) | 574 s
Cc1nc2cc(N3CCC(C(=O)NCCC4=CCCCC4)CC3)cnc2nc1C | 767 s
COc1nc2ccccc2nc1N1CCCC(C(=O)Nc2cccc(Br)c2)C1 (centres undefined) | 1300 s
CCN1C(=O)Cc2cc(C(=O)N3CCN(c4ccccn4)CC3)ccc21 | 780 s
Cc1cc(C)c(NC(=O)C2CCCN2S(=O)(=O)c2cc3c(cc2C)NC(=O)CO3)c(C)c1 (centres undefined) | 799 s
O=C(Nc1ccc(Br)cc1)N1CCC(N2CCN(Cc3ccccc3)C2=O)CC1 | 893 s
CCCN1C(=O)COc2cc(-c3noc(C(=O)NCCC4=CCCCC4)n3)ccc21 | 1180 s
CCSc1nc2ccc(NS(=O)(=O)c3ccc(F)cc3Cl)cc2s1 | 1110 s
Cc1ccc(-n2ccc(=O)c(-c3nc(-c4ccc(Br)cc4)no3)n2)cc1 | 1030 s
COc1ccc(OC)c(NC(=O)NCCc2nc3cccnc3n2C2CCCC2)c1 | 706 s
CCCCN1CCN(C(=O)CN2CCN(Cc3ccccc3)C2=O)CC1 | 589 s
Cc1nc(-c2cc3ccccc3nc2N2CCN(C(=O)c3cccs3)CC2)no1 | 894 s
Cc1nc(-c2csc(S(=O)(=O)N3CCCC(C(=O)NCCc4ccc(Cl)cc4)C3)c2)no1 (centres undefined) | 982 s

Compound | RP-LC retention time
c1ccc(-c2nc3cc(-c4noc(-c5ccco5)n4)ccc3o2)cc1 | 1240 s
CCn1c(=O)c(C)nc2cc(-c3noc(Cc4ccc(OC)c(OC)c4)n3)ccc21 | 888 s
CN(C)[C@@H]1CN(C(=O)c2n[nH]c3ccccc23)C[C@H]1CO | 552 s
Brc1cccc(-c2nc3ccccn3c2Nc2ccc3c(c2)OCO3)c1 | 726 s
COc1ccc(CC(=O)N2CCC3(CC2)C(=O)N(C)c2ccccc23)cc1OC | 752 s
CCc1nc(-c2csc(S(=O)(=O)N3CCCC(C(=O)Nc4ccc(Cl)cc4F)C3)c2)no1 (centres undefined) | 1150 s
Cc1cc(N2CCN(C(=O)c3ccc(N(C)C)cc3)CC2)nc2nnc(C)n12 | 579 s
COc1ccc(OCc2nnc3sc(-c4ccc5ccccc5n4)nn23)cc1 | 1040 s
CCc1ccccc1N1C(=O)c2c(C(=O)OC)ncn2CC1(C)C(=O)NC1CCCC1 (centres undefined) | 733 s
COc1ccc(-c2ncccc2CNS(=O)(=O)c2cccc(C#N)c2)cc1 | 660 s
O=Cc1ccc(O)c2ncccc12 | 658 s
CC(C)NC(=O)c1nc2ccccc2n(C)c1=O | 659 s
CCCS(=O)(=O)c1nc2ccc(NS(=O)(=O)c3ccccc3Cl)cc2s1 | 906 s
Cc1cccc(N2CCN(c3cc(C(=O)O)c4cc(NC(=O)C5CCC5)ccc4n3)CC2)c1C | 777 s
O=S(=O)(c1ccc(-c2cnc(C3CCC3)o2)s1)N1CCN(c2ccccn2)CC1 | 767 s
Cc1nnc(-c2ccc3ccn(CC(=O)Nc4ccc(Cl)cc4F)c3c2)o1 | 887 s
COc1ccc(-c2noc(-c3nc(-c4cc(OC)c(OC)c(OC)c4)no3)n2)cc1 | 1080 s
Cc1nc2c(NC(=O)c3cccs3)cccn2n1 | 690 s
Cc1nc2nc(SCC(=O)NCCCN3CCOCC3)nn2c(C)c1Cc1ccccc1 | 622 s
Cc1cccc(-c2noc(-c3ccc(N4CCN(c5ncccn5)CC4)nc3)n2)c1 | 1310 s
